Species on record: Rattus norvegicus
Experiment: Open TG-GATES - Regimen: Single
Format: toxicity, organism-based, Sprague-Dawley
Set-up: regimen Single, gender Male, age 6 weeks
Settings: in vivo, po, 100 mg/kg, route gavage, dose level High; for APTT / Bas / Eos / Fbg / Hb / Ht / Lym / MCH / MCHC / MCV / Mono / Neu / PT / Plat / RBC / Ret / WBC: tissue Blood; for KIDNEY_L / KIDNEY_R / KIDNEY_TOTAL: tissue Kidney; for LIVER: tissue Liver; for A/G / ALP / ALT / AST / BUN / CRE / Ca / Cl / DBIL / GLC / IP / K / LDH / Na / PL / RALB / TBIL / TC / TG / TP / gamma-GTP: tissue Plasma

## CC1=C(/C=C/C(C)=C/C=C/C(C)=C/CO)C(C)(C)CCC1 [RETINOL]
3 h
  TERMINAL_BW: 201.1 g
  APTT: 21.6 s
  Bas: 0%
  Eos: 1%
  Fbg: 312.4 mg/dL
  Hb: 13.3 g/dL
  Ht: 38.7%
  Lym: 77.2%
  MCH: 21.4 pg
  MCHC: 34.5%
  MCV: 62 fL
  Mono: 2.6%
  Neu: 19%
  PT: 15.7 s
  Plat: 117.7 x10_4/uL
  RBC: 625.8 x10_4/ul
  Ret: 8%
  WBC: 79.7 x10_2/uL
  KIDNEY_L: 0.9 g
  KIDNEY_R: 0.9 g
  KIDNEY_TOTAL: 1.8 g
  LIVER: 9.1 g
  A/G: 1.4
  ALP: 1910.2 IU/L
  ALT: 46 IU/L
  AST: 77 IU/L
  BUN: 13.6 mg/dL
  CRE: 0.2 mg/dL
  Ca: 11 mg/dL
  Cl: 106.2 meq/L
  DBIL: 0 mg/dL
  GLC: 182 mg/dL
  IP: 9.4 mg/dL
  K: 4 meq/L
  LDH: 219.2 IU/L
  Na: 141.2 meq/L
  PL: 157.4 mg/dL
  RALB: 3.2 g/dL
  TBIL: 0.006 mg/dL
  TC: 77 mg/dL
  TG: 153 mg/dL
  TP: 5.6 g/dL
  gamma-GTP: 1.6 IU/L
6 h
  TERMINAL_BW: 205.2 g
  APTT: 20.3 s
  Bas: 0%
  Eos: 1%
  Fbg: 292.8 mg/dL
  Hb: 13.2 g/dL
  Ht: 38.6%
  Lym: 73.8%
  MCH: 21.1 pg
  MCHC: 34.2%
  MCV: 61.8 fL
  Mono: 4.8%
  Neu: 19.8%
  PT: 15 s
  Plat: 120.3 x10_4/uL
  RBC: 625.6 x10_4/ul
  Ret: 7.8%
  WBC: 110 x10_2/uL
  KIDNEY_L: 0.9 g
  KIDNEY_R: 0.9 g
  KIDNEY_TOTAL: 1.8 g
  LIVER: 9 g
  A/G: 1.3
  ALP: 1660.6 IU/L
  ALT: 37.6 IU/L
  AST: 74 IU/L
  BUN: 10.6 mg/dL
  CRE: 0.1 mg/dL
  Ca: 11.3 mg/dL
  Cl: 105.8 meq/L
  DBIL: 0.006 mg/dL
  GLC: 190.4 mg/dL
  IP: 10.6 mg/dL
  K: 4.3 meq/L
  LDH: 212.4 IU/L
  Na: 141.8 meq/L
  PL: 147.8 mg/dL
  RALB: 3.1 g/dL
  TBIL: 0.016 mg/dL
  TC: 71.8 mg/dL
  TG: 118 mg/dL
  TP: 5.4 g/dL
  gamma-GTP: 1 IU/L
9 h
  TERMINAL_BW: 198.4 g
  APTT: 21.5 s
  Bas: 0%
  Eos: 0.8%
  Fbg: 288.4 mg/dL
  Hb: 12.8 g/dL
  Ht: 36.9%
  Lym: 72.4%
  MCH: 21.3 pg
  MCHC: 34.7%
  MCV: 61.4 fL
  Mono: 3.2%
  Neu: 22.6%
  PT: 15.5 s
  Plat: 124.3 x10_4/uL
  RBC: 601 x10_4/ul
  Ret: 7.6%
  WBC: 96.3 x10_2/uL
  KIDNEY_L: 0.9 g
  KIDNEY_R: 0.9 g
  KIDNEY_TOTAL: 1.9 g
  LIVER: 8.8 g
  A/G: 1.4
  ALP: 1745.2 IU/L
  ALT: 35.2 IU/L
  AST: 69.2 IU/L
  BUN: 9.6 mg/dL
  CRE: 0.1 mg/dL
  Ca: 11 mg/dL
  Cl: 106.4 meq/L
  DBIL: 0.014 mg/dL
  GLC: 179.6 mg/dL
  IP: 10.7 mg/dL
  K: 4.3 meq/L
  LDH: 219.6 IU/L
  Na: 141.2 meq/L
  PL: 129.2 mg/dL
  RALB: 3.1 g/dL
  TBIL: 0.016 mg/dL
  TC: 65.6 mg/dL
  TG: 91.2 mg/dL
  TP: 5.3 g/dL
  gamma-GTP: 1 IU/L
24 h
  TERMINAL_BW: 207.3 g
  APTT: 23.2 s
  Bas: 0%
  Eos: 0.8%
  Fbg: 303.6 mg/dL
  Hb: 13.3 g/dL
  Ht: 38.7%
  Lym: 79.2%
  MCH: 21.2 pg
  MCHC: 34.3%
  MCV: 61.9 fL
  Mono: 2.2%
  Neu: 16.8%
  PT: 16 s
  Plat: 117.6 x10_4/uL
  RBC: 627 x10_4/ul
  Ret: 7.3%
  WBC: 93.1 x10_2/uL
  KIDNEY_L: 0.9 g
  KIDNEY_R: 0.9 g
  KIDNEY_TOTAL: 1.8 g
  LIVER: 9.6 g
  A/G: 1.2
  ALP: 1815.8 IU/L
  ALT: 47.2 IU/L
  AST: 79 IU/L
  BUN: 14.2 mg/dL
  CRE: 0.2 mg/dL
  Ca: 10.8 mg/dL
  Cl: 106.2 meq/L
  DBIL: 0.004 mg/dL
  GLC: 193.4 mg/dL
  IP: 7.4 mg/dL
  K: 4 meq/L
  LDH: 242.4 IU/L
  Na: 140.2 meq/L
  PL: 144 mg/dL
  RALB: 3 g/dL
  TBIL: 0.006 mg/dL
  TC: 68.8 mg/dL
  TG: 155.2 mg/dL
  TP: 5.5 g/dL
  gamma-GTP: 1.8 IU/L
